Experimental data reported in patent US20230190797A1, “COMPOSITIONS AND METHODS FOR ADOPTIVE CELL THERAPY” (MEMORIAL SLOAN KETTERING CANCER CENTER, priority 2017, published 2023).
Where two headings read alike, the source gives them in different places.

Columns and labels:
[1] = Cell permeability in CACO-2 cells; assay type: in vitro ADME; conditions: human, read-out: Efflux Ratio (B-A/A-B)
[2] = system: endogenous glutamate carboxypeptidase expressed in human prostate cells; test: Prodrug stability towards endogenous glutamate carboxypeptidase, LNCap viability; assay type: cell-based
From the text: This prodrug/drug combination was chosen for further development of the SEAKER systems.

[3] = system: HEK293T cells expressing CPG2 variants; test: Viability of HEK293T cells expressing CPG2 variants exposed to prodrug; assay type: cell-based, human
Description: FIG. 9 provides exemplary data showing that that cell-secreted and transmembrane CPG2 expressed in stably transfected cells activates an AIS prodrug. Expression of CPG2 without a signal peptide (CPG2nosigp) was employed as a control. 293t cells stably transfected with CPG2 variants were exposed to P-AMS (1 μM) for 48 hours and analyzed by bright field microscopy (FIG. 9A). Cells were exposed to varying concentrations of P-AMS and cell viability was analyzed at 48 hr post treatment (FIG. 9B).
Expression of CPG2 without a signal peptide (CPG2nosigp) was employed as a control. HEK293t cells stably transfected with CPG2 variants were exposed to P-AMS (1 μM) for 48 hours and analyzed by bright field microscopy (FIG. 9A). Cells were exposed to varying concentrations of P-AMS and cell viability was analyzed at 48 hr post treatment (FIG. 9B).

[4] = mouse, in vivo
in vivo = conditions: NOD, mouse
HEK293T (kidney) = test: CellTitre Glo in vitro cytotoxicity, HEK293T; assay type: cell-based, human; conditions: prodrug versus AMS
SET2 cells = test: SET2 viability with prodrug plus enzyme or enzyme-containing supernatant; assay type: cell-based; conditions: increasing prodrug
Description: Recombinant CPG2 protein was initially synthesized, purified (FIGS. 18A and 18B), and incubated with increasing concentrations of prodrug in a glutamate release assay (FIG. 17C). Mass spectrometry was used to determine that the glutamate moiety was released from all of the glutamate prodrugs.
Cell viability was measured by CellTitre-Glo® luminescence assay.
To determine to respective enzyme output of the Beta-lactamase constructs relative to the previous CPG2 constructs, a quantitative sandwich ELISA was used to determine the concentration (ng/mL) of purified recombinant CPG2, and a quantitative nitrocefin assay was used to determine the concentration (ng/mL) of purified recombinant Beta-lactamase (FIG. 25A). Cell viability was measured by CellTitre-Glo® luminescence in the presence of prodrug (glut-AMS or ceph-AMS) and varying concentrations of purified recombinant CPG2 or Beta-lactamase (FIG. 25B).

[5] = system: myeloid leukemia cell line SET2; test: Cytotoxicity, SET2; assay type: cell-based; conditions: Set2, prodrug versus AMS
primary T-cells = test: CellTitre Glo in vitro cytotoxicity, primary T cells; assay type: cell-based; conditions: prodrug versus AMS

SMILES: CN(C)C(=O)C(CCN1CCC(O)(c2ccc(Cl)cc2)CC1)(c1ccccc1)c1ccccc1 [Loperamide]
- efflux ratio ([1]; Caco-2, with Ver (concentration not stated), + Ver): 0.7
- efflux ratio ([1]; Caco-2, without Ver): 7.7

SMILES: NS(=O)(=O)OC[C@H]1O[C@@H](n2cnc3c(NC(=O)N[C@@H](CCC(=O)O)C(=O)O)ncnc32)[C@H](O)[C@@H]1O [P-AMS, ((9-((2R,3R,4S,5R)-3,4-dihydroxy-5-((sulfamoyloxy)methyl)tetrahydrofuran-2-yl)-9H-purin-6-yl)carbamoyl)-L-glutamic acid]
- stability in presence of endogenous glutamate carboxypeptidase [2]: remained stable
- activation of prodrug by cells expressing CPG intracellularly ([3]; HEK293T cells expressing CPG intracellularly): not activated
- cell death of cells expressing secreted or transmembrane CPG2 ([3]; stably transfected HEK293T, cell-secreted and transmembrane CPG2, 48 hr, no-signal-peptide control did not): significant cell death
- toxicity in mice [4]: non-toxic
- half-life (in vivo): 30 to 40 min

SMILES: Nc1ncnc2c1ncn2[C@@H]1O[C@H](COS(=O)(=O)NCC2=C(C(=O)O)N3C(=O)[C@@H](NC(=O)Cc4cccs4)[C@H]3SC2)[C@@H](O)[C@H]1O [ceph-AMS]
- Selective Index, HEK293t (HEK293T (kidney)): ~3
- SET2 cell viability with Beta-lactamase supernatant (SET2 cells): significant decrease in cell viability
- Selective Index, Set2 [5]: ~64
- Selective Index, Human T cell (primary T-cells): >6
